Our source for the activity coefficient values is the NIST ThermoML archive (doi:10.1016/j.jct.2019.05.011).

The nature of this data set: activity coefficient (dimensionless); of the first substance listed, at infinite dilution; xn = mol fraction of the nth substance listed. Conditions: 101.33 kPa, Liquid, Chromatography, x1 = 0.

± gives the expanded uncertainty stated by the source.

Consider `C=CCCCCCCCC` [1-decene] + CC(CC(C)(C)C)CP(=O)([O-])CC(C)CC(C)(C)C.CCCCCCCCCCCCCC[P+](CCCCCC)(CCCCCC)CCCCCC, for which the activity coefficient runs as follows: (313.15 K) 0.98 ± 0.06; (323.15 K) 1.04 ± 0.07; (333.15 K) 1.15 ± 0.07; (343.15 K) 1.18 ± 0.08.

As to `C1CCCCCCC1` [cyclooctane] + CC(CC(C)(C)C)CP(=O)([O-])CC(C)CC(C)(C)C.CCCCCCCCCCCCCC[P+](CCCCCC)(CCCCCC)CCCCCC, the activity coefficient runs as follows: (313.15 K) 0.7 ± 0.05; (323.15 K) 0.71 ± 0.05; (333.15 K) 0.77 ± 0.05; (343.15 K) 0.79 ± 0.05.

Consider `CCO` [ethanol] + CC(CC(C)(C)C)CP(=O)([O-])CC(C)CC(C)(C)C.CCCCCCCCCCCCCC[P+](CCCCCC)(CCCCCC)CCCCCC, for which the activity coefficient was 0.04 (323.15 K), 0.06 (333.15 K) and 0.07 ± 0.03 (343.15 K).

For `CCCO` [propan-1-ol] + CC(CC(C)(C)C)CP(=O)([O-])CC(C)CC(C)(C)C.CCCCCCCCCCCCCC[P+](CCCCCC)(CCCCCC)CCCCCC, the activity coefficient came out at 0.07 ± 0.03 (323.15 K), 0.08 ± 0.03 (333.15 K) and 0.09 ± 0.03 (343.15 K).

As for `Cc1ccc(C)cc1` [1,4-dimethylbenzene] + CC(CC(C)(C)C)CP(=O)([O-])CC(C)CC(C)(C)C.CCCCCCCCCCCCCC[P+](CCCCCC)(CCCCCC)CCCCCC, the activity coefficient reads like this: (313.15 K) 0.6 ± 0.04; (323.15 K) 0.63 ± 0.04; (333.15 K) 0.65 ± 0.04; (343.15 K) 0.69 ± 0.05.

In the case of `CCCCCCCCC` [nonane] + CC(CC(C)(C)C)CP(=O)([O-])CC(C)CC(C)(C)C.CCCCCCCCCCCCCC[P+](CCCCCC)(CCCCCC)CCCCCC, the activity coefficient (313.15 K) came out at 1.04 ± 0.07, the activity coefficient (323.15 K) was found to be 1.11 ± 0.07, the activity coefficient (333.15 K) worked out at 1.23 ± 0.08 and the activity coefficient (343.15 K) worked out at 1.25 ± 0.08.

Consider `CC1CCCCC1` [methylcyclohexane] + CC(CC(C)(C)C)CP(=O)([O-])CC(C)CC(C)(C)C.CCCCCCCCCCCCCC[P+](CCCCCC)(CCCCCC)CCCCCC, for which the activity coefficient is, setting by setting: (313.15 K) 0.64 ± 0.04; (323.15 K) 0.68 ± 0.05; (333.15 K) 0.73 ± 0.05; (343.15 K) 0.78 ± 0.05.

Turning to `CCC(C)=O` [butanone] + CC(CC(C)(C)C)CP(=O)([O-])CC(C)CC(C)(C)C.CCCCCCCCCCCCCC[P+](CCCCCC)(CCCCCC)CCCCCC, the activity coefficient is, setting by setting: (313.15 K) 0.65 ± 0.04; (323.15 K) 0.67 ± 0.05; (333.15 K) 0.72 ± 0.05; (343.15 K) 0.77 ± 0.05.

`Cc1ccccc1` [toluene] + CC(CC(C)(C)C)CP(=O)([O-])CC(C)CC(C)(C)C.CCCCCCCCCCCCCC[P+](CCCCCC)(CCCCCC)CCCCCC: the activity coefficient by setting is: (313.15 K) 0.5 ± 0.04; (323.15 K) 0.51 ± 0.04; (333.15 K) 0.56 ± 0.04; (343.15 K) 0.59 ± 0.04.

For the molecule `CCCCCCCCCC` [decane] + CC(CC(C)(C)C)CP(=O)([O-])CC(C)CC(C)(C)C.CCCCCCCCCCCCCC[P+](CCCCCC)(CCCCCC)CCCCCC, the activity coefficient (313.15 K) was determined as 1.22 ± 0.08, the activity coefficient (323.15 K) came out at 1.28 ± 0.08, the activity coefficient (333.15 K) is 1.33 ± 0.09 and the activity coefficient (343.15 K) worked out at 1.39 ± 0.09.

With `CC(C)=O` [acetone] + CC(CC(C)(C)C)CP(=O)([O-])CC(C)CC(C)(C)C.CCCCCCCCCCCCCC[P+](CCCCCC)(CCCCCC)CCCCCC, the activity coefficient runs as follows: (313.15 K) 0.7 ± 0.05; (323.15 K) 0.72 ± 0.05; (333.15 K) 0.78 ± 0.05; (343.15 K) 0.83 ± 0.05.

Turning to `CCC(C)(C)C` [2,2-dimethylbutane] + CC(CC(C)(C)C)CP(=O)([O-])CC(C)CC(C)(C)C.CCCCCCCCCCCCCC[P+](CCCCCC)(CCCCCC)CCCCCC, the activity coefficient reads like this: (313.15 K) 0.78 ± 0.05; (323.15 K) 0.82 ± 0.05; (333.15 K) 0.9 ± 0.06; (343.15 K) 0.97 ± 0.06.

Take `C1CCOC1` [tetrahydrofuran] + CC(CC(C)(C)C)CP(=O)([O-])CC(C)CC(C)(C)C.CCCCCCCCCCCCCC[P+](CCCCCC)(CCCCCC)CCCCCC: the activity coefficient (313.15 K) stood at 0.43 ± 0.04, the activity coefficient (323.15 K) worked out at 0.45 ± 0.04, the activity coefficient (333.15 K) came to 0.49 ± 0.04 and the activity coefficient (343.15 K) turned out to be 0.52 ± 0.04.

Take `c1ccsc1` [thiophene] + CC(CC(C)(C)C)CP(=O)([O-])CC(C)CC(C)(C)C.CCCCCCCCCCCCCC[P+](CCCCCC)(CCCCCC)CCCCCC: the activity coefficient by setting is: (313.15 K) 0.35 ± 0.03; (323.15 K) 0.4 ± 0.03; (333.15 K) 0.41 ± 0.03; (343.15 K) 0.44 ± 0.04.

For the molecule `CCCCO` [butan-1-ol] + CC(CC(C)(C)C)CP(=O)([O-])CC(C)CC(C)(C)C.CCCCCCCCCCCCCC[P+](CCCCCC)(CCCCCC)CCCCCC, the activity coefficient is, setting by setting: (333.15 K) 0.11 ± 0.03; (343.15 K) 0.12 ± 0.03.

For the molecule `CC#N` [acetonitrile] + CC(CC(C)(C)C)CP(=O)([O-])CC(C)CC(C)(C)C.CCCCCCCCCCCCCC[P+](CCCCCC)(CCCCCC)CCCCCC, the activity coefficient runs as follows: (313.15 K) 1.34 ± 0.09; (323.15 K) 1.4 ± 0.09; (333.15 K) 1.41 ± 0.09; (343.15 K) 1.46 ± 0.1.

In the case of `Cc1cccc(C)c1` [1,3-dimethylbenzene] + CC(CC(C)(C)C)CP(=O)([O-])CC(C)CC(C)(C)C.CCCCCCCCCCCCCC[P+](CCCCCC)(CCCCCC)CCCCCC, the activity coefficient runs as follows: (313.15 K) 0.63 ± 0.04; (323.15 K) 0.65 ± 0.04; (333.15 K) 0.67 ± 0.05; (343.15 K) 0.7 ± 0.05.

For `C=CCCCCC` [1-heptene] + CC(CC(C)(C)C)CP(=O)([O-])CC(C)CC(C)(C)C.CCCCCCCCCCCCCC[P+](CCCCCC)(CCCCCC)CCCCCC, the activity coefficient reads like this: (313.15 K) 0.77 ± 0.05; (323.15 K) 0.81 ± 0.05; (333.15 K) 0.88 ± 0.06; (343.15 K) 0.95 ± 0.06.

Take `C1=CCCCC1` [cyclohexene] + CC(CC(C)(C)C)CP(=O)([O-])CC(C)CC(C)(C)C.CCCCCCCCCCCCCC[P+](CCCCCC)(CCCCCC)CCCCCC: the activity coefficient runs as follows: (313.15 K) 0.57 ± 0.04; (323.15 K) 0.59 ± 0.04; (333.15 K) 0.64 ± 0.04; (343.15 K) 0.68 ± 0.05.

Consider `C=CCCCCCCC` [1-nonene] + CC(CC(C)(C)C)CP(=O)([O-])CC(C)CC(C)(C)C.CCCCCCCCCCCCCC[P+](CCCCCC)(CCCCCC)CCCCCC, for which the activity coefficient by setting is: (313.15 K) 0.91 ± 0.06; (323.15 K) 0.95 ± 0.06; (333.15 K) 1.08 ± 0.07; (343.15 K) 1.14 ± 0.07.

In the case of `CCc1ccccc1` [ethylbenzene] + CC(CC(C)(C)C)CP(=O)([O-])CC(C)CC(C)(C)C.CCCCCCCCCCCCCC[P+](CCCCCC)(CCCCCC)CCCCCC, the activity coefficient is, setting by setting: (313.15 K) 0.57 ± 0.04; (323.15 K) 0.6 ± 0.04; (333.15 K) 0.65 ± 0.04; (343.15 K) 0.68 ± 0.05.

In the case of `CO` [methanol] + CC(CC(C)(C)C)CP(=O)([O-])CC(C)CC(C)(C)C.CCCCCCCCCCCCCC[P+](CCCCCC)(CCCCCC)CCCCCC, the activity coefficient runs as follows: (313.15 K) 0.03; (323.15 K) 0.04; (333.15 K) 0.05; (343.15 K) 0.06.

Consider `CCCCCC` [hexane] + CCCCCCCCCCCCCCCC, for which, under “298.15 K”, the activity coefficient was 0.874 ± 0.056.

Turning to `c1ccccc1` [benzene] + CC(CC(C)(C)C)CP(=O)([O-])CC(C)CC(C)(C)C.CCCCCCCCCCCCCC[P+](CCCCCC)(CCCCCC)CCCCCC, the activity coefficient was 0.42 ± 0.04 (313.15 K), 0.45 ± 0.04 (323.15 K), 0.49 ± 0.04 (333.15 K) and 0.52 ± 0.04 (343.15 K).

For `Cc1ccccc1C` [1,2-dimethylbenzene] + CC(CC(C)(C)C)CP(=O)([O-])CC(C)CC(C)(C)C.CCCCCCCCCCCCCC[P+](CCCCCC)(CCCCCC)CCCCCC, the activity coefficient by setting is: (313.15 K) 0.6 ± 0.04; (323.15 K) 0.62 ± 0.04; (333.15 K) 0.64 ± 0.04; (343.15 K) 0.67 ± 0.05.

As to `CC(C)CC(C)(C)C` [2,2,4-trimethylpentane] + CC(CC(C)(C)C)CP(=O)([O-])CC(C)CC(C)(C)C.CCCCCCCCCCCCCC[P+](CCCCCC)(CCCCCC)CCCCCC, the activity coefficient by setting is: (313.15 K) 0.92 ± 0.06; (323.15 K) 0.96 ± 0.06; (333.15 K) 1.04 ± 0.07; (343.15 K) 1.14 ± 0.07.

Turning to `O` [water] + CC(CC(C)(C)C)CP(=O)([O-])CC(C)CC(C)(C)C.CCCCCCCCCCCCCC[P+](CCCCCC)(CCCCCC)CCCCCC, the activity coefficient (313.15 K) was 0.26 ± 0.03, the activity coefficient (323.15 K) is 0.27 ± 0.03, the activity coefficient (333.15 K) was found to be 0.3 ± 0.03 and the activity coefficient (343.15 K) came out at 0.31 ± 0.03.
